In brackets after ≈: the same amount, converted by molar mass. Activity calls are given as the source filed them. The calls are words filed in the database; no cut-off is given here.
Key:
Enterococcus faecium = assay: Antimicrobial activity against vancomycin-resistant Enterococcus faecium; type: functional, organism-based
Candida albicans = assay: Antimicrobial activity against amphotericin-resistant Candida albicans; type: functional, organism-based
Staphylococcus aureus = assay: Antimicrobial activity against methicillin-resistant Staphylococcus aureus; type: functional, organism-based
RAW264.7 [1] = assay: Antiinflammatory activity in mouse RAW264.7 cells assessed as inhibition of LPS-stimulated nitric oxide production at 3 to 10 uM treated 30 mins prior to LPS challenge measured after 24 hrs by Griess reagent method; type: functional; design: scale not given: the % may be the effect or the level left
RAW264.7 [2] = assay: Cytotoxicity against mouse RAW264.7 cells at 3 to 10 uM by sulforhodamine B assay; type: cell-based; conditions: raw264.7, 10 µM
HCT-116 = assay: Cytotoxicity against human HCT116 cells; type: functional, cell-based
RAW264.7 [3] = assay: Antiinflammatory activity in mouse RAW264.7 cells assessed as inhibition of LPS-stimulated PGE2 production at 3 to 10 uM treated 30 mins prior to LPS challenge measured after 24 hrs by ELISA; type: functional; design: scale not given: the % may be the effect or the level left
RAW264.7 [4] = assay: Antiinflammatory activity in mouse RAW264.7 cells assessed as inhibition of LPS-stimulated nitric oxide production treated 30 mins prior to LPS challenge measured after 24 hrs by Griess reagent method; type: functional, cell-based
[5] = Inhibition of TNF-induced NF-kappaB activation transfected in HEK293 cells by luciferase reporter gene assay; type: cell-based

CCCCCC[C@@H](C)[C@H](O)CC(=O)NCC(=O)N[C@H](C(=O)C[C@@H](CC(C)C)C(=O)N[C@@H](C)C(=O)N[C@@H](Cc1ccccc1)C(=O)OC)C(C)C
Activity (Enterococcus faecium): inactive
Activity (Candida albicans): inactive
Activity (Staphylococcus aureus): inactive

CCCCCC[C@H](C)[C@@H]1CC(=O)NCC(=O)N[C@@H](C(C)C)C(=O)N[C@@H](CC(C)C)C(=O)N[C@@H](C)C(=O)N[C@@H](CCSC)C(=O)O1
Activity (Enterococcus faecium): inactive
Activity (Candida albicans): inactive
Activity (Staphylococcus aureus): inactive

CCCCCC[C@H](C)[C@@H]1CC(=O)NCC(=O)N[C@@H](C(C)C)C(=O)N[C@@H](CC(C)C)C(=O)N[C@@H](C)C(=O)N[C@@H](Cc2ccccc2)C(=O)O1 [ARENAMIDE A]
Activity (Enterococcus faecium): inactive
Activity (RAW264.7 [1]): 35%
Activity (RAW264.7 [2]): Non-toxic
Activity (Candida albicans): inactive
IC50 (HCT-116): 13.2 mg/L (≈ 19.6 µM)
Activity (RAW264.7 [3]): 50%
Activity (RAW264.7 [4]): Dose-dependent effect
Activity (Staphylococcus aureus): inactive
IC50 [5]: 3.7 µM

CCCC[C@H](C)[C@@H]1CC(=O)NCC(=O)N[C@@H](C(C)C)C(=O)N[C@@H](CC(C)C)C(=O)N[C@@H](C)C(=O)N[C@@H](Cc2ccccc2)C(=O)O1 [ARENAMIDE B]
Activity (Enterococcus faecium): inactive
Activity (RAW264.7 [1]): 35%
Activity (RAW264.7 [2]): Non-toxic
Activity (Candida albicans): inactive
IC50 (HCT-116): 19.2 mg/L (≈ 29.8 µM)
Activity (RAW264.7 [3]): 50%
Activity (RAW264.7 [4]): Dose-dependent effect
Activity (Staphylococcus aureus): inactive
IC50 [5]: 1.7 µM

— ChEMBL document CHEMBL1151992, “Arenamides A-C, cytotoxic NFkappaB inhibitors from the marine actinomycete Salinispora arenicola” (J Nat Prod, 2009)
